{
  "source": "patent US11318208B2",
  "about": "“Synthetic compound” (Syntab Therapeutics GmbH, priority 2016, dated 2022)",
  "key": {"α3 Integrin [1]": {"system": "α3 Integrin", "assay": "FACS analysis of cell binding, binder targeting α3 Integrin", "parameters": "species or system human", "settings": "FIG. 8; 200 nM biotinylated binder; K 562 does not express α3 Integrin", "method": "(§1) The binding capability of peptides or peptidomimectis, of synthetic compounds according to the invention to different cell lines displaying particular targets was investigated by using flow cytometry. Detached cells were incubated with biotinylated peptide/peptidomimetic or biotinylated synthetic compound in blocking buffer for at least 30 min of ice. The cells were washed twice with washing buffer followed by incubation with streptavidin labeled with the Peridinin-chlorophyll protein PerCP-Cy5.5 (BD Biosciences) for 15 minutes on ice. After one additional wash step, samples were analyzed using FACS Canto (at least 10,000 cells per sample were counted) for cells which have bound the biotinylated reagent plus the streptavidin-PerCP-Cy5.5. Overlay histograms of cells incubated with peptide or control peptide were generated and the geometrical mean fluorescence of each sample was determined in FloJo. The EC50 measurements were calculated using Graph Prism software.\n(§2) The following cell lines were used. The presence or absence of the surface antigens α3 Integrin and αvβ6 Integrin has been verified by corresponding antibody tests: […]"}, "α3 Integrin [2]": {"biological_target": "T1, α3 Integrin (Homo sapiens, UniProt P05556+P26006)", "T1 construct": "endogenous in cells; host or cells: A431", "T1 sequence (P26006 33-872 limits assumed)": "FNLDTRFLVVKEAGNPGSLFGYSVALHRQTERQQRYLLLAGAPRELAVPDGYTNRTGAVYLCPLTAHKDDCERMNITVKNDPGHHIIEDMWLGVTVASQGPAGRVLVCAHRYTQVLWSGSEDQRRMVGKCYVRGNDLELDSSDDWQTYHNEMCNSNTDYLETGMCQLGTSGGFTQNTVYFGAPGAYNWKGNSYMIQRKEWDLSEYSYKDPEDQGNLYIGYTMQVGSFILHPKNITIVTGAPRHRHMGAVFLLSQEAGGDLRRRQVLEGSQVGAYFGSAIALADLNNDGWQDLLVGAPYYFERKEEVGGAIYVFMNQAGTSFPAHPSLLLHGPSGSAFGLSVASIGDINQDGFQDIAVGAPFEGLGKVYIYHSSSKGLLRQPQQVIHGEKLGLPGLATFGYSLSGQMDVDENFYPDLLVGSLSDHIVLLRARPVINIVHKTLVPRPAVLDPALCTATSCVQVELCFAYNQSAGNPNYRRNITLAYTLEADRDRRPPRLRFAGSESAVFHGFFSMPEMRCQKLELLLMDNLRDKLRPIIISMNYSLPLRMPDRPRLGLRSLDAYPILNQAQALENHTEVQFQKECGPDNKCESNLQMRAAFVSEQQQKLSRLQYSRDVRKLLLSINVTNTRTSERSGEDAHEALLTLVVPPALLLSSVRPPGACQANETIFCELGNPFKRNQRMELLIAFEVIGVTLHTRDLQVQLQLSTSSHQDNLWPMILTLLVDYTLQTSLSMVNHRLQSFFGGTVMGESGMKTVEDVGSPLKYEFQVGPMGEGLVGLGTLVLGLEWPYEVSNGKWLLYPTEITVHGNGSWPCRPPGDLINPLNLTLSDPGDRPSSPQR", "T1 sequence (P26006 873-1051 limits assumed)": "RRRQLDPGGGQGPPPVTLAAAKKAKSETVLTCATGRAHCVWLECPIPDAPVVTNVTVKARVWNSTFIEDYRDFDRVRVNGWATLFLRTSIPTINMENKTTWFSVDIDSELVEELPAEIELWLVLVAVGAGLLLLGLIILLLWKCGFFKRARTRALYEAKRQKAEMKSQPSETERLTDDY", "T1 sequence (P05556 21-798)": "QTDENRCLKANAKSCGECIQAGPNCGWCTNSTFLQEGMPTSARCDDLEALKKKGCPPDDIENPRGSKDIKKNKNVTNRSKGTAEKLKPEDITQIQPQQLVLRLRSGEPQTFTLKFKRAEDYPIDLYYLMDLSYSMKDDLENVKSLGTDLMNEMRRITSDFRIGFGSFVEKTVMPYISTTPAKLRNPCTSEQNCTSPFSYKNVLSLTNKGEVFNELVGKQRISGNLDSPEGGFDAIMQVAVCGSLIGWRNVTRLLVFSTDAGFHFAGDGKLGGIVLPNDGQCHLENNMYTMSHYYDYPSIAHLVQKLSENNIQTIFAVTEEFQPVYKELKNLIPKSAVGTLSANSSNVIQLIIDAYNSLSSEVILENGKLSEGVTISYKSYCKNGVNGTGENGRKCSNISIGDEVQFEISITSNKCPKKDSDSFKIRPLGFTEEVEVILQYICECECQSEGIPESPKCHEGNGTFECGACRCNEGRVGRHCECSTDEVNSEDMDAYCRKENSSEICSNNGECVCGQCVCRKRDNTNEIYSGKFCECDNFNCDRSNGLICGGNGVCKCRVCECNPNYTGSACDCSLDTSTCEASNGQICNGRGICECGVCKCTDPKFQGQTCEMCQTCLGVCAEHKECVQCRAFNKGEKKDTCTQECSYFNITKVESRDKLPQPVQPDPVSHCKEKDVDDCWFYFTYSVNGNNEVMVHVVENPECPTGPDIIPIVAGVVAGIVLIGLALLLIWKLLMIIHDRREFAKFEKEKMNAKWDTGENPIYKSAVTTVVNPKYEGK", "assay": "FACS analysis of cell binding, binder targeting α3 Integrin", "settings": "FIG. 8, 200 nM biotinylated binder, vs scrambled variant", "method": "as §1, §2"}, "αvβ6 Integrin [3]": {"system": "αvβ6 Integrin", "assay": "FACS analysis of cell binding, binder targeting αvβ6 Integrin", "parameters": "species or system human", "settings": "FIG. 9, 10 nM biotinylated binder", "method": "as §1, §2"}, "αvβ6 Integrin [4]": {"biological_target": "T2, αvβ6 Integrin (Homo sapiens, UniProt P06756+P18564)", "T2 construct": "The presence or absence of the surface antigens α3 Integrin and αvβ6 Integrin has been verified by corresponding antibody tests; endogenous in cells", "T2 sequence (P06756 31-889 limits assumed)": "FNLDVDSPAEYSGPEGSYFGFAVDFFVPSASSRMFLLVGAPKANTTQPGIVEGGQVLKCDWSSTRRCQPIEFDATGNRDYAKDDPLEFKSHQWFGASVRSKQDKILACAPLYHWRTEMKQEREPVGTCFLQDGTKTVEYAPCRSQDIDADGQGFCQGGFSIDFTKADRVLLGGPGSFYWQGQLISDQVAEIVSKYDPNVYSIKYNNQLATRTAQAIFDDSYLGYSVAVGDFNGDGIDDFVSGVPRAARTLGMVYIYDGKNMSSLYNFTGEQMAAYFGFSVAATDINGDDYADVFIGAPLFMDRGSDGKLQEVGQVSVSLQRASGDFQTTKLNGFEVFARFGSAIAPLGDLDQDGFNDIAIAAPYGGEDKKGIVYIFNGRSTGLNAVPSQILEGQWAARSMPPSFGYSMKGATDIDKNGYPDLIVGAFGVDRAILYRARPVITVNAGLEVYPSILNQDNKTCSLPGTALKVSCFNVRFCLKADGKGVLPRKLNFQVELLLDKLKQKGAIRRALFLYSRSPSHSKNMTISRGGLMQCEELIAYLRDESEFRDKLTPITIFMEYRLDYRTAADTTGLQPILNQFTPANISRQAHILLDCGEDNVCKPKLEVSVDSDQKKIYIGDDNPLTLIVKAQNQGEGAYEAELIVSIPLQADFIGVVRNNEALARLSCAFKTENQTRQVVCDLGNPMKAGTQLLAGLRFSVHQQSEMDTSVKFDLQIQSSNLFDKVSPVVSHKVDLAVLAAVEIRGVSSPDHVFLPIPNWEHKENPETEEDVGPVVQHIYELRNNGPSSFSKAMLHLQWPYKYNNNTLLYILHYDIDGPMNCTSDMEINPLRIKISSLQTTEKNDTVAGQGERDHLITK", "T2 sequence (P06756 891-1048 limits assumed)": "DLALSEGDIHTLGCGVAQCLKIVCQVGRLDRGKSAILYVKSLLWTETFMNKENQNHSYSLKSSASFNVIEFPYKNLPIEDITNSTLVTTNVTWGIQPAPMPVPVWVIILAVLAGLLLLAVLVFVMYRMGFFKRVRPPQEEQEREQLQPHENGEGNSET", "T2 sequence (P18564 22-788)": "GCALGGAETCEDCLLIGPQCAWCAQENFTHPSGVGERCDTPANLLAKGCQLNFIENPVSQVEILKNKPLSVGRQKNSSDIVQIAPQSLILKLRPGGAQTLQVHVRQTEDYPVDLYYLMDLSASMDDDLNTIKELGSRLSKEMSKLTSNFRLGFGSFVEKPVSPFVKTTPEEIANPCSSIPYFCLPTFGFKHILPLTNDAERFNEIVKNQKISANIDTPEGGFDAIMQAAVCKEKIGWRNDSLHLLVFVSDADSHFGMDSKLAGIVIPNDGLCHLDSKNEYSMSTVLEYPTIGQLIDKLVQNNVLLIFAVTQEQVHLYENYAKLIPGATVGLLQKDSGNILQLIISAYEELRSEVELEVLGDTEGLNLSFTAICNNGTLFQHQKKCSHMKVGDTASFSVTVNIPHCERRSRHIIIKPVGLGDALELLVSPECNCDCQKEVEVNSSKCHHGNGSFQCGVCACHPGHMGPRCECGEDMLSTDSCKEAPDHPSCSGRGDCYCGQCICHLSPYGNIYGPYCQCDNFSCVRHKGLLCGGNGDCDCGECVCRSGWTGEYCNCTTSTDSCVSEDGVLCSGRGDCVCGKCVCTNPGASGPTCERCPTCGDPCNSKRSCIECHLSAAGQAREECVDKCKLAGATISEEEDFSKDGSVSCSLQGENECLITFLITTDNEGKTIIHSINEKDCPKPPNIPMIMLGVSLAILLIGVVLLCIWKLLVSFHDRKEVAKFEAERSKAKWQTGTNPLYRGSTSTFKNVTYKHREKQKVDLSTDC", "assay": "FACS analysis of cell binding, binder targeting αvβ6 Integrin", "settings": "FIG. 9, 10 nM biotinylated binder, vs scrambled variant", "method": "as §1, §2"}, "human leukocytes [5]": {"system": "human leukocytes", "assay": "DHR 123 oxidation assay (oxidative burst), human leukocytes", "assay_type": "cell-based", "settings": "FIG. 4B; in vitro in human leukocytes; compared with fMLF", "method": "(§3) Oxidative burst in neutrophils form part of the cells host defense, and can be evoked, e.g., by the N-formyl peptide fMLP. (Kim et al, 2003). Oxidation assays are thus a useful tool to determine the potency of formyl peptides. The oxidative burst activity of neutrophils caused by incubation with effector peptides or peptidomimetics was measured by flow cytometry, quantifying the intracellular conversion of dihydrorhodamine 123 (DHR) to rhodamine. In brief, human or murine leukocytes (1.25*10^6 cells/ml) were incubated with catalase, cytochalasin B (Sigma) and DHR (Invitrogen) in Hanks' Buffered Saline Solution (HBSS, without Ca^2+, Mg^2+) with 10 mM Hepes pH 7.4, 5 mM EDTA and 0.3% BSA at 37° C. for 10 minutes followed by incubation with the different effector peptides or peptidomimetics at different concentrations for 15 minutes at 37° C. PMA was used as a positive control.\n(§4) All samples were fixed in formaldehyde and kept on ice until analysis using FACS Canto (at least 20,000 cells per sample were counted). Neutrophils were identified based on forward and side scatter characteristics. Analysis of DHR fluorescence was performed by side scatter/FL2 dot plots. Percent of DHR-positive cells were identified by gating on a negative (unstimulated) control sample."}, "mouse leukocytes": {"system": "mouse leukocytes", "assay": "DHR 123 oxidation assay (oxidative burst), mouse leukocytes", "assay_type": "cell-based", "settings": "FIG. 5; in vitro in mouse leukocytes; compared with fMLF", "method": "as §3, §4"}, "human leukocytes [6]": {"system": "human leukocytes", "assay": "Chemotaxis assay", "assay_type": "cell-based", "settings": "FIG. 4A; in vitro in human leukocytes; compared with fMLF (devoid of an Ile residue)", "method": "To test for the chemotactic effect of effector peptides or peptidomimetics, human leukocytes were re-suspended in Hanks' Buffered Saline Solution (HBSS, without Ca^2+, Mg^2+) with 10 mM Hepes pH 7.4 and 0.3% BSA at 10*10^6 cells/ml. Cells were pre-warmed at 37° C. for 20 min. After adding the effector dilutions in the above buffer into wells of 24-well plates (800 μl/well), a Millicell culture plate insert with 5 μm pore size was placed in each well, followed by immediate addition of 200 μl (2 million) leukocytes. The plate was incubated at 37° C. for 45 min. The total number of leukocytes that migrated to the bottom chamber was determined using a Neubauer chamber, or the numbers of transmigrated monocytes, neutrophils and lymphocytes were determined by flow cytometry (distinguish cell populations in FCS/SSC plot)."}},
  "note": "Square brackets hold non-standard residues; d marks the D form. Ends that are not written are not given here. * marks the point of attachment. Tyr(3-NO2) = N[C@@H](Cc1ccc(O)c([N+](=O)[O-])c1)C(=O)O; Hyp = O=C(O)[C@@H]1C[C@@H](O)CN1; For = O=C*",
  "data": [
    {"substance": "SEQ ID NO: 1: peptidomimetic binder cdGY(3-NO2)GHypNc targeting α3 Integrin; tested biotinylated ([dC][dD]G[Tyr(3-NO2)]G[Hyp]N[dC]; cysteine pairing not given here; also: tested biotinylated, site not given here)", "values": [
      {"measurement": "binding to cell line K 562", "setting": "α3 Integrin [1]", "value": "do not bind"},
      {"measurement": "binding to cell line A431", "setting": "α3 Integrin [2]; A431 expresses α3 Integrin", "value": "binds"},
      {"measurement": "binding to cell line PC3", "setting": "α3 Integrin [2]; PC3 expresses α3 Integrin", "value": "binds"},
      {"measurement": "binding to cell line U87-MG", "setting": "α3 Integrin [2]; U87-MG expresses α3 Integrin", "value": "binds"}
    ]},
    {"substance": "SEQ ID NO: 2: peptide binder RGDLATLRQL targeting αvβ6 Integrin; tested biotinylated (also: biotinylated, place not given here)", "values": [
      {"measurement": "binding to cell line PC-3", "setting": "αvβ6 Integrin [3]; PC-3 does not express αvβ6 Integrin", "value": "do not bind"},
      {"measurement": "binding to cell line U87-MG", "setting": "αvβ6 Integrin [3]; U87-MG does not express αvβ6 Integrin", "value": "do not bind"},
      {"measurement": "binding to cell line A431", "setting": "αvβ6 Integrin [4]; A431 expresses αvβ6 Integrin", "value": "binds"},
      {"measurement": "binding to cell line HT-29", "setting": "αvβ6 Integrin [4]; HT-29 expresses αvβ6 Integrin", "value": "binds"}
    ]},
    {"substance": "fMIFL: N-formyl methionine effector peptide fMIFL, comprises isoleucin; fM=N-formylmethionine, remaining letters L-amino acids (For-MIFL)", "values": [
      {"measurement": "activation of oxidative bursts", "setting": "human leukocytes [5]", "value": "much better activation of oxidative bursts"},
      {"measurement": "activation of oxidative bursts", "setting": "mouse leukocytes", "value": "much better activation of oxidative bursts"},
      {"measurement": "chemotactic effect", "setting": "human leukocytes [6]", "value": "significantly better chemotactic effect"}
    ]}
  ]
}
